{"source": "paper PMC9305623", "about": "“Next generation GLP-1/GIP/glucagon triple agonists normalize body weight in obese mice” (Molecular Metabolism, 2022)", "key": {"mGcg Receptor": {"target": "T1, mGcg Receptor (Mus musculus, UniProt Q61606)", "T1 construct": "expressed in transfected cells; host or cells: baby hamster kidney (BHK) cells, stably transfected, with CRE-firefly luciferase reporter", "T1 sequence (Q61606 27-485)": "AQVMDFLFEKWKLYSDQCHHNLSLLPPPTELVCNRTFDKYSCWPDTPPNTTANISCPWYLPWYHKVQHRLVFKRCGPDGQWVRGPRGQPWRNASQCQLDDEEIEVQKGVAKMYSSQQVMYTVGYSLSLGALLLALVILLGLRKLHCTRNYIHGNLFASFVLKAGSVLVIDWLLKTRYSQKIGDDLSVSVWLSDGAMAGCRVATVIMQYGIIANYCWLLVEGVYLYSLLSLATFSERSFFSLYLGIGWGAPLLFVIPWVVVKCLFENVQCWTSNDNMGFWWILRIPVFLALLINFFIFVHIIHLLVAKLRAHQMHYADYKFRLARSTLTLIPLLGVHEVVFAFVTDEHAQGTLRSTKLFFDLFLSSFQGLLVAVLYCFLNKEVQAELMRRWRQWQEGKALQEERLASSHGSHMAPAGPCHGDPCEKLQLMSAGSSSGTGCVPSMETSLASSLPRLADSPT", "assay": "Receptor activation: cAMP production by CRE-luciferase reporter in stably transfected BHK cells", "format": "cell-based", "details": "relative to native ligand at mouse-derived receptor", "description": "(§1) Cyclic AMP (cAMP) production was assessed as a proxy for receptor activation using stably transfected baby hamster kidney (BHK) cell lines expressing the DNA for one individual receptor (GLP-1R, GIPR, GcgR; human- or mouse-specific sequence) and the DNA for the firefly luciferase reporter gene linked to the cAMP response element (CRE). The cells were kept in continuous culture at 37 °C and 5% CO2 in Dulbecco's Modified Eagle Medium (DMEM) supplemented with 10% heat-inactivated fetal bovine serum (HI-FBS), 300 μg/mL hygromycin, and 500 μg/mL G418; for cell lines expressing GIPR, the G418 concentration was lowered to 400 μg/mL. Cells were plated in a 96-well poly-D-lysine-coated plate at 5,000 cells per well in growth media and incubated overnight at 37 °C with 5% CO2. After the overnight incubation, the media was removed, the plate was washed once in Dulbecco's phosphase-buffered saline (DPBS), and 50 μL of assay buffer (DMEM without phenol red, 10 mM HEPES, 1x Glutamax, 1% ovalbumin, 0.1% Pluronic F-68) was added to each well. […] The assay plate was covered to protect reagent from light, shaken at 250 rpm at room temperature for 30 min, and read in a microtiter plate reader. EC50 values were calculated using Prism software (GraphPad) with the nonlinear regression log(agonist) vs. response. A minimum of two replicates were measured for each sample."}, "DIO mice [1]": {"test_system": "DIO mice", "assay": "Plasma parameters in DIO mice after chronic treatment", "format": "in vivo, mouse", "details": "higher dose (2 nmol/kg), compared to vehicle"}, "DIO mice [2]": {"test_system": "DIO mice", "assay": "Pharmacodynamics in DIO mice: body weight, food intake, body composition", "format": "in vivo, mouse (male C57BL/6J)", "protocol": "Studies were approved by and performed according to the guidelines of the Institutional Animal Care and Use Committee of the University of Cincinnati. Male C57BL/6J mice (Jackson Laboratories) were housed 4 per cage, exposed to a controlled 12 h/12 h light–dark cycle at room temperature (22 °C), and provided ab libitum access to water and a 58% fat, high-sugar diet (D12331, Research Diets) for 12 weeks. Mice exceeding 50 g of body weight were considered diet-induced obese (DIO) and included in studies, where they were randomized and evenly distributed to test groups (n = 8 per group) according to body weight. Test compounds dissolved at a concentration of 0.5–2 μM in a vehicle (pH 7.4) containing 0.05% polysorbate-80, 50 mM sodium phosphate, and 70 mM sodium chloride were administered subcutaneously once daily, unless otherwise noted, during the light cycle for each day of treatment at a volume of 2–5 μL per gram of body weight as necessary to achieve the desired dose. Body weight and food intake were measured immediately prior to dosing each day. The percent change in body was calculated individually for each mouse based on initial body weight prior to the first injection. For intraperitoneal (i.p.) glucose tolerance tests (IPGTT), animals were fasted for 6 h prior to the test but had access to water. Fasted blood glucose levels were measured, then mice were injected with an i.p. glucose load of 2 g/kg from a 200 mg/mL aqueous glucose solution. Tail blood glucose levels were measured 0, 15, 30, 60, 90, and 120 min following the glucose load using a handheld glucometer (Freestyle, Abbott)."}, "mGLP-1 Receptor": {"target": "T2, mGLP-1 Receptor (Mus musculus, UniProt O35659)", "T2 construct": "expressed in transfected cells; host or cells: baby hamster kidney (BHK) cells, stably transfected, with CRE-firefly luciferase reporter", "T2 sequence (O35659 22-463)": "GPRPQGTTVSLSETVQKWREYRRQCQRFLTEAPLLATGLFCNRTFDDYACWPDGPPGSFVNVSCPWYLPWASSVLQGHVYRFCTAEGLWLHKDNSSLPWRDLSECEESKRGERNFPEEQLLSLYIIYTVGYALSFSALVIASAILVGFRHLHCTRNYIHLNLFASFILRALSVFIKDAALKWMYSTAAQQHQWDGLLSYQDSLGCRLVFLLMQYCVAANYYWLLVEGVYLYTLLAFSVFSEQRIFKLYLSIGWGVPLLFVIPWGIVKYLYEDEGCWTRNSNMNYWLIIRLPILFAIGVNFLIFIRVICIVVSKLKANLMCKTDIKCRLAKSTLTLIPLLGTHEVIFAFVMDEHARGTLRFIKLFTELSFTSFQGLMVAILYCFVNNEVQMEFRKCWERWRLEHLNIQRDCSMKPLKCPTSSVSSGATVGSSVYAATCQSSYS", "assay": "Receptor activation: cAMP production by CRE-luciferase reporter in stably transfected BHK cells", "format": "cell-based", "details": "relative to native ligand at mouse-derived receptor", "description": "as §1"}, "in vivo": {"assay": "in vivo", "set-up": "species or system Göttingen minipigs", "details": "female, Göttingen, minipig, iv, 2 nmol/kg", "protocol": "Studies were conducted in accordance with the Protection of Animals Act, the Act on Experiments on Animals, and the Standard Operating Procedures for Experiments on Animals at Novo Nordisk A/S. The experiments were performed under the supervision and approval of the Danish Government Animal Experiments Inspectorate and the Novo Nordisk Ethical Review Counsel. Female Göttingen minipigs (Ellegaard Göttingen Minipigs A/S), 7–14 months old and weighing 16–35 kg, were housed individually and fed once daily with a restricted SDS minipig diet (Special Diets Services). At least one week before the study, two permanent central venous catheters were implanted in the caudal vena cava of each animal. The animals were fasted for approximately 18 h before dosing and 4 h after dosing but had ad libitum access to water during the whole period. Test compounds dissolved to a concentration of 20–40 nmol/mL in a vehicle (pH 7.4) containing 0.025% polysorbate-20, 10 mM sodium phosphate, and 250 mM glycerol were administered via an intravenous injection through one catheter at a dose of 2 nmol/kg. Blood samples were collected in 8 mM aqueous EDTA for up to 14 days post dosing, preferably through the other catheter, then centrifuged at 4 °C and ∼2000g for 10 min. Plasma was isolated and immediately frozen until RP-HPLC/MS analysis. Individual plasma concentration–time profiles were analysed by a non-compartmental model in Phoenix WinNonLin software (Pharsight Inc.), and the resulting terminal half-lives were determined at the harmonic mean."}, "DIO mice [3]": {"test_system": "DIO mice", "assay": "Energy expenditure in DIO mice (indirect calorimetry)", "format": "in vivo, mouse", "details": "daily injections of 3 nmol/kg for 5 days inside an indirect calorimeter", "protocol": "Energy expenditure was assessed using a combined indirect calorimetry system (TSE Systems, Chesterfield, MO). Animals were kept in the indirect calorimetry system for 7d; d1 (0–24h) included acclimation to the new cages but no energy expenditure readings, d2 included baseline energy expenditure readings with vehicle injections, d3-7 included experimental energy expenditure readings and treatment injections. Treatment injections begin at t = 48h as indicated by the vertical dashed line and were performed every 24h as indicated by the arrows. O2 consumption and CO2 production were measured every 20 min to determine the respiratory quotient and energy expenditure using the Weir equation (EE=(3.94 x vO2) + (1.1 x vCO2))."}}, "note": "*1 amine or outer side, *2 acyl side, *3 side chain or, on linkers, in order; H or OH if unused. Where a SMILES comes first, the peptide text is derived from it. Side-chain parts run from the residue outwards. [ ]: non-standard residue; d: D form. The star is where a group is joined. C20 diacid = O=C(O)CCCCCCCCCCCCCCCCCCC(=O)*; γGlu = O=C(O)[C@H](CCC(=O)[*:2])N[*:1]; εLys = N[C@@H](CCCCN[*:1])C(=O)[*:2]; Aib = CC(C)(N)C(=O)O"}
{"smiles": "CC[C@H](C)[C@H](NC(=O)[C@H](CO)NC(=O)[C@H](Cc1ccc(O)cc1)NC(=O)[C@H](CC(=O)O)NC(=O)[C@H](CO)NC(=O)[C@@H](NC(=O)[C@H](Cc1ccccc1)NC(=O)[C@@H](NC(=O)CNC(=O)[C@H](Cc1c[nH]cn1)NC(=O)C(C)(C)NC(=O)[C@@H](N)Cc1c[nH]cn1)[C@@H](C)O)[C@@H](C)O)C(=O)N[C@@H](Cc1ccc(O)cc1)C(=O)N[C@@H](CC(C)C)C(=O)N[C@@H](CCC(=O)O)C(=O)N[C@@H](CCCCNC(=O)[C@@H](N)CCCCNC(=O)[C@@H](N)CCCCNC(=O)CC[C@H](NC(=O)CCCCCCCCCCCCCCCCCCC(=O)O)C(=O)O)C(=O)N[C@@H](CCCCN)C(=O)N[C@@H](Cc1ccc(O)cc1)C(=O)N[C@@H](C)C(=O)NC(C)(C)C(=O)N[C@@H](CCC(=O)O)C(=O)N[C@@H](Cc1ccccc1)C(=O)N[C@H](C(=O)N[C@@H](CCC(N)=O)C(=O)N[C@@H](Cc1c[nH]c2ccccc12)C(=O)N[C@@H](CC(C)C)C(=O)N[C@@H](CC(C)C)C(=O)N[C@@H](CCC(=O)O)C(=O)NCC(=O)NCC(=O)N1CCC[C@H]1C(=O)N[C@@H](CO)C(=O)N[C@@H](CO)C(=O)NCC(=O)N[C@@H](C)C(=O)N1CCC[C@H]1C(=O)N1CCC[C@H]1C(=O)N1CCC[C@H]1C(=O)N[C@@H](CO)C(N)=O)C(C)C", "note": "[Compound 16] (H-H[Aib]HGTFTSDYSIYLEK([εLys-εLys-γGlu-C20 diacid])KYA[Aib]EFVQWLLEGGPSSGAPPPS-NH2)", "values": [{"measurement": "mGcg Receptor Relative Potency %", "setting": "mGcg Receptor", "value": 78, "unit": "%"}, {"measurement": "insulin levels", "setting": "DIO mice [1]", "value": "decreased"}, {"measurement": "body weight loss at high dose versus first generation triagonist and SAR441255", "setting": "DIO mice [2]; 2 nmol/kg", "value": "significantly superior body weight loss"}, {"measurement": "weight lowering efficacy versus tirzepatide", "setting": "DIO mice [2]; 3 nmol/kg daily and dose-escalated (1 to 30 nmol/kg) groups, s.c.", "value": "significantly more weight lowering efficacy"}, {"measurement": "Body weight reductions", "setting": "DIO mice [2]; 3 nmol/kg daily dose s.c., after 2 weeks of treatment", "value": "greater than 30%"}, {"measurement": "origin of weight loss (fat mass vs lean mass)", "setting": "DIO mice [2]; 1 or 2 nmol/kg", "value": "predominantly derived from a reduction in fat mass, not lean mass"}, {"measurement": "animals achieving body weight normalization (average weight of lean litter mates, 22.5 g)", "setting": "DIO mice [2]; n = 8 per group, up-titrated from 1 to 10 nmol/kg over 24 days, then 10 nmol/kg for up to 18 days", "value": "Five of the eight"}, {"measurement": "body weight loss in animals achieving body weight normalization", "setting": "DIO mice [2]; s.c. once daily, up-titrated from 1 to 10 nmol/kg over 24 days, then 10 nmol/kg for up to 18 days", "value": "55–60%"}, {"measurement": "mGLP-1 Receptor Relative Potency %", "setting": "mGLP-1 Receptor", "value": 142, "unit": "%"}, {"measurement": "Vd", "setting": "in vivo", "value": 0.164, "unit": "L/kg"}, {"measurement": "clearance", "setting": "in vivo", "value": 1.5, "unit": "mL/h/kg"}, {"measurement": "half-life", "setting": "in vivo", "value": 75, "unit": "h"}, {"measurement": "energy expenditure", "setting": "DIO mice [3]", "value": "increased energy expenditure over both vehicle and tirzepatide"}, {"measurement": "locomotor activity", "setting": "DIO mice [3]", "value": "not accompanied by a change in locomotor activity"}]}
